# Test results: ChEMBL document CHEMBL1140019, “Primary amides as selective inhibitors of cathepsin K” (Bioorg Med Chem Lett, 2007)
# Key:
# Homo sapiens [1] = species on record: Homo sapiens; test: Selectivity for humanized cathepsin K over human cathepsin S
# Homo sapiens [2] = species on record: Homo sapiens; test: Selectivity for humanized cathepsin K over human cathepsin L
SMILES,Ratio IC50 (Homo sapiens [1]),Ratio IC50 (Homo sapiens [2])
CC(C)C[C@H](N[C@@H](c1ccc(-c2ccc(S(C)(=O)=O)cc2)cc1)C(F)(F)F)C(=O)NCC(N)=O,170,–
CC(C)C[C@H](N[C@@H](c1ccc(-c2ccc(S(C)(=O)=O)cc2)cc1)C(F)(F)F)C(=O)N[C@@H](Cc1ccccc1)C(N)=O,–,1700
CSCC[C@H](NC(=O)[C@H](CC(C)C)N[C@@H](c1ccc(-c2ccc(S(C)(=O)=O)cc2)cc1)C(F)(F)F)C(N)=O,–,4300
